Publication PMC11500415, “Chemical inhibition of stomatal differentiation by perturbation of the master-regulatory bHLH heterodimer via an ACT-Like domain” (Nature Communications, 2024)
Like-named read-outs stand apart in the source and are kept apart here.

Target: T1, SCRM (Arabidopsis thaliana, UniProt Q9LSE2)
T1 construct: SCRM (1-494); made in house; host or cells: E. coli BL21
T1 sequence (Q9LSE2 1-494): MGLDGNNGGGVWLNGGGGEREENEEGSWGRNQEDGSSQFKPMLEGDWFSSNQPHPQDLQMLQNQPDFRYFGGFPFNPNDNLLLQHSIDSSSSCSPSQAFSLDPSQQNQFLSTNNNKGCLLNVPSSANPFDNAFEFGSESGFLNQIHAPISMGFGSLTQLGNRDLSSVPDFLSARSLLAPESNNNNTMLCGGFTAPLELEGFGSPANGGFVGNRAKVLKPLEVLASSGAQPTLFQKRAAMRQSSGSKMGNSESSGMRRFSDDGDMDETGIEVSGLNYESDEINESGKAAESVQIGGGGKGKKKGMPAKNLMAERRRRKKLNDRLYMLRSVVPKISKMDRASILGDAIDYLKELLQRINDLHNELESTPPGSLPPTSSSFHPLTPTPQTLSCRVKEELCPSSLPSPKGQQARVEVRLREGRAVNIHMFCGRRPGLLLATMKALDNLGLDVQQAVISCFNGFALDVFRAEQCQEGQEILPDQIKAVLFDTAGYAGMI
Experiment: BLI direct binding
Parameters: species or system A. thaliana

`O=C1C(c2ccccc2)=NC(NS(=O)(=O)c2ccccc2)(c2ccccc2)N1S(=O)(=O)c1ccccc1` (centres unmarked) [Stomidazolone] showed a Kd (BLI steady state, read-out: KD (SS)) of 68.5 ± 5.6 µM and a Kd (BLI, read-out: KD) of 65.5 ± 0.6 µM.
